The supplement of paper PMC11061612

Tests used:
Assay in all cases: combination Emax (second highest fraction inhibited in the dose matrix, 72 h); higher = more inhibition; extreme values may be limits of the assay
[1] = test system: 5637 (Bladder Carcinoma)
Summary of the method: (§1)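 Bliss excess equals the observed combination effect minus the expected value EA + EB − EA·EB, where EA and EB are the effects of each agent alone. Combination Emax is the second-highest inhibition within the matrix. Inhibition was scaled from CellTiter-Glo 2.0 luminescence, with 0 set by vehicle wells and 1 by blank wells, after 72 hours of two-drug dosing of cells plated in 1536-well plates.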

[2] = test system: A101D (Melanoma)
Summary of the method: as §1

[3] = test system: A204 (Rhabdomyosarcoma)
Summary of the method: as §1

[4] = test system: A253 (Head and Neck Carcinoma)
Summary of the method: as §1

[5] = test system: AU565 (Breast Carcinoma)
Summary of the method: as §1

[6] = test system: CAL-27 (Oral Cavity Carcinoma)
Summary of the method: as §1

[7] = test system: EPLC-272H (Other Solid Carcinomas)
Summary of the method: as §1

[8] = test system: ESO26 (Esophageal Adenocarcinoma)
Summary of the method: as §1

[9] = test system: EW-7 (Ewing's Sarcoma)
Summary of the method: as §1

[10] = test system: HT55 (Colorectal Carcinoma)
Summary of the method: as §1

[11] = test system: JHU-022 (Oral Cavity Carcinoma)
Summary of the method: as §1

[12] = test system: KYSE-220 (Esophageal Squamous Cell Carcinoma)
Summary of the method: as §1

[13] = test system: NCI-H1703 (Squamous Cell Lung Carcinoma)
Summary of the method: as §1

[14] = test system: NCI-H2087 (Lung Adenocarcinoma)
Summary of the method: as §1

[15] = test system: NCI-H2228 (Lung Adenocarcinoma)
Summary of the method: as §1

[16] = test system: NCI-H716 (Colorectal Carcinoma)
Summary of the method: as §1

[17] = test system: OACp4C (Esophageal Adenocarcinoma)
Summary of the method: as §1

[18] = test system: PEO1 (Ovarian Carcinoma)
Summary of the method: as §1

[19] = test system: UACC-812 (Breast Carcinoma)
Summary of the method: as §1

[20] = test system: huH-1 (Hepatocellular Carcinoma)
Summary of the method: as §1

| SMILES | combination Emax [1] | combination Emax [2] | combination Emax [3] | combination Emax [4] | combination Emax [5] | combination Emax [6] | combination Emax [7] | combination Emax [8] | combination Emax [9] | combination Emax [10] | combination Emax [11] | combination Emax [12] | combination Emax [13] | combination Emax [14] | combination Emax [15] | combination Emax [16] | combination Emax [17] | combination Emax [18] | combination Emax [19] | combination Emax [20] |
| --- | --- | --- | --- | --- | --- | --- | --- | --- | --- | --- | --- | --- | --- | --- | --- | --- | --- | --- | --- | --- |
| CN(C)CCCOc1ccc(-c2ccc3ncc4c(c3c2)n(C2CCOCC2)c(=O)n4C)cn1 [AZD0156] + CCN(CCO)CCCOc1ccc2c(Nc3cc(CC(=O)Nc4cccc(F)c4)[nH]n3)ncnc2c1 [AZD2811] (first compound max 1 µM, 7x7, partner max 1 µM) | 0.609 | 0.203 | 0.297 | 0.212 | 0.208 | 0.546 | 0.415 | 0.0581 | 0.403 | 0.16 | 0.193 | 0.142 | 0.506 | 0.0658 | 0.384 | 0.45 | 0.598 | 0.157 | 0.148 | 0.317 |
| CN(C)CCCOc1ccc(-c2ccc3ncc4c(c3c2)n(C2CCOCC2)c(=O)n4C)cn1 [AZD0156] + C[C@@H]1COCCN1C2=NC(=NC(=C2)C3(CC3)[S@](=N)(=O)C)C4=C5C=CNC5=NC=C4 [AZD6738] (first compound max 1 µM, 7x7, partner max 10 µM) | 0.712 | 0.703 | 0.411 | 0.794 | 0.473 | 0.586 | 0.903 | 0.414 | 0.935 | 0.514 | 0.525 | 0.876 | 0.856 | 0.666 | 0.517 | 0.667 | 0.724 | 0.533 | 0.295 | 0.821 |
| CN(C)CCCOc1ccc(-c2ccc3ncc4c(c3c2)n(C2CCOCC2)c(=O)n4C)cn1 [AZD0156] + O=C(c1cc(Cc2n[nH]c(=O)c3ccccc23)ccc1F)N1CCN(C(=O)C2CC2)CC1 [Olaparib] (first compound max 3 µM, partner max 3 µM) | 0.439 | 0.411 | 0.467 | 0.186 | 0.631 | 0.299 | 0.503 | 0.206 | 0.524 | 0.209 | 0.62 | 0.54 | 0.582 | 0.12 | 0.439 | 0.225 | 0.406 | 0.122 | 0.261 | 0.174 |
| C=CCn1c(=O)c2cnc(Nc3ccc(N4CCN(C)CC4)cc3)nc2n1-c1cccc(C(C)(C)O)n1 [AZD1775] + C1CN(CCC1(C(=O)N[C@@H](CCO)C2=CC=C(C=C2)Cl)N)C3=NC=NC4=C3C=CN4 [Capivasertib] (first compound max 3 µM, partner max 3 µM) | 0.957 | 0.757 | 0.529 | 0.848 | 0.833 | 0.715 | 0.834 | 0.707 | 0.896 | 0.831 | 0.71 | 0.85 | 0.911 | 0.501 | 0.59 | 0.727 | 0.889 | 0.773 | 0.466 | 0.666 |
| C=CCn1c(=O)c2cnc(Nc3ccc(N4CCN(C)CC4)cc3)nc2n1-c1cccc(C(C)(C)O)n1 [AZD1775] + C[C@@H]1COCCN1C2=NC(=NC(=C2)C3(CC3)[S@](=N)(=O)C)C4=C5C=CNC5=NC=C4 [AZD6738] (first compound max 1 µM, partner max 10 µM) | 0.898 | 0.749 | 0.369 | 0.863 | 0.603 | 0.682 | 0.882 | 0.399 | 0.944 | 0.782 | 0.601 | 0.941 | 0.958 | 0.729 | 0.653 | 0.623 | 0.831 | 0.6 | 0.531 | 0.794 |
| C=CCn1c(=O)c2cnc(Nc3ccc(N4CCN(C)CC4)cc3)nc2n1-c1cccc(C(C)(C)O)n1 [AZD1775] + O=C(c1cc(Cc2n[nH]c(=O)c3ccccc23)ccc1F)N1CCN(C(=O)C2CC2)CC1 [Olaparib] (first compound max 1 µM, partner max 10 µM) | 0.836 | 0.604 | 0.24 | 0.35 | 0.449 | 0.525 | 0.761 | 0.474 | 0.82 | 0.454 | 0.432 | 0.857 | 0.962 | 0.493 | 0.592 | 0.378 | 0.806 | 0.384 | 0.14 | 0.634 |
| CCN(CCO)CCCOc1ccc2c(Nc3cc(CC(=O)Nc4cccc(F)c4)[nH]n3)ncnc2c1 [AZD2811] + C=CCn1c(=O)c2cnc(Nc3ccc(N4CCN(C)CC4)cc3)nc2n1-c1cccc(C(C)(C)O)n1 [AZD1775] (first compound max 1 µM, partner max 1 µM) | 0.893 | 0.427 | 0.27 | 0.407 | 0.449 | 0.511 | 0.803 | 0.604 | 0.817 | 0.376 | 0.388 | 0.804 | 0.94 | 0.291 | 0.598 | 0.562 | 0.809 | 0.278 | 0.116 | 0.696 |
| CCN(CCO)CCCOc1ccc2c(Nc3cc(CC(=O)Nc4cccc(F)c4)[nH]n3)ncnc2c1 [AZD2811] + C[C@@H]1COCCN1C2=NC(=NC(=C2)C3(CC3)[S@](=N)(=O)C)C4=C5C=CNC5=NC=C4 [AZD6738] (first compound max 1 µM, 7x7, partner max 10 µM) | 0.827 | 0.682 | 0.387 | 0.756 | 0.362 | 0.515 | 0.849 | 0.0804 | 0.902 | 0.515 | 0.535 | 0.884 | 0.834 | 0.662 | 0.517 | 0.515 | 0.733 | 0.553 | 0.323 | 0.712 |
| CCN(CCO)CCCOc1ccc2c(Nc3cc(CC(=O)Nc4cccc(F)c4)[nH]n3)ncnc2c1 [AZD2811] + O=C(c1cc(Cc2n[nH]c(=O)c3ccccc23)ccc1F)N1CCN(C(=O)C2CC2)CC1 [Olaparib] (first compound max 1 µM, 7x7, partner max 10 µM) | 0.622 | 0.261 | 0.387 | 0.25 | 0.214 | 0.778 | 0.204 | 0 | 0.361 | 0.291 | 0.271 | 0.214 | 0.519 | 0.163 | 0.268 | 0.367 | 0.408 | 0.29 | 0.181 | 0.415 |
| CN(CCO)CC[C@H](CSc1ccccc1)Nc1ccc(S(=O)(=O)NC(=O)c2ccc(N3CCC([C@@H](O)c4ccccc4-c4ccc(Cl)cc4)CC3)cc2)cc1S(=O)(=O)C(F)(F)F [AZD4320] + CN(C)CCCOc1ccc(-c2ccc3ncc4c(c3c2)n(C2CCOCC2)c(=O)n4C)cn1 [AZD0156] (first compound max 1 µM, 7x7, partner max 1 µM) | 0.222 | 0.413 | 0.223 | 0.173 | 0.253 | 0.158 | 0.439 | 0.153 | 0.68 | 0.161 | 0.102 | 0.14 | 0.367 | 0.321 | 0.278 | 0.195 | 0.851 | 0.45 | 0.175 | 0.122 |
| COc1nnc2ccc(N3CCC(c4ccc(OCCN5CCN(C)C(=O)[C@H]5C)cc4)CC3)nn12 [AZD5153] + C=CCn1c(=O)c2cnc(Nc3ccc(N4CCN(C)CC4)cc3)nc2n1-c1cccc(C(C)(C)O)n1 [AZD1775] (first compound max 1 µM, partner max 1 µM) | 0.944 | 0.737 | 0.471 | 0.356 | 0.742 | 0.63 | 0.862 | 0.757 | 0.872 | 0.81 | 0.417 | 0.804 | 0.992 | 0.627 | 0.465 | 0.524 | 0.882 | 0.691 | 0.376 | 0.558 |
| COc1nnc2ccc(N3CCC(c4ccc(OCCN5CCN(C)C(=O)[C@H]5C)cc4)CC3)nn12 [AZD5153] + CC1(C)CCC(CN2CCN(c3ccc(C(=O)NS(=O)(=O)c4ccc(NCC5CCOCC5)c([N+](=O)[O-])c4)c(Oc4cnc5[nH]ccc5c4)c3)CC2)=C(c2ccc(Cl)cc2)C1 [Venetoclax] (first compound max 1 µM, 7x7, partner max 1 µM) | 0.477 | 0.67 | 0.416 | 0.22 | 0.311 | 0.504 | 0.754 | 0.648 | 0.334 | 0.513 | 0.417 | 0.617 | 0.655 | 0.389 | 0.288 | 0.615 | 0.545 | 0.368 | 0.261 | 0.401 |
| COc1nnc2ccc(N3CCC(c4ccc(OCCN5CCN(C)C(=O)[C@H]5C)cc4)CC3)nn12 [AZD5153] + CCN(CCO)CCCOc1ccc2c(Nc3cc(CC(=O)Nc4cccc(F)c4)[nH]n3)ncnc2c1 [AZD2811] (first compound max 1 µM, 7x7, partner max 1 µM) | 0.68 | 0.693 | 0.466 | 0.444 | 0.359 | 0.646 | 0.748 | 0.752 | 0.444 | 0.619 | 0.452 | 0.677 | 0.721 | 0.351 | 0.348 | 0.529 | 0.683 | 0.435 | 0.298 | 0.527 |
